In ChEMBL document CHEMBL1158045, “Phenolic constituents of the roots of Sophora flavescens” (J Nat Prod, 2006) one finds IC50 data, which are given here for five compounds.

The subject of the assay is KB. Description: Cytotoxicity against human KB cells. It counts as functional, cell-based.

Each structure is given as a SMILES string. In brackets after ≈: the same amount, converted by molar mass.

Take `C=C(C)C(CC=C(C)C)Cc1c(O)cc(OC)c(C(=O)C(=O)c2ccc(O)cc2O)c1O` (stereo not given) [SOPHORADIONE]: half-maximal inhibition (IC50) was put at 29.4 µg/mL (≈ 66.7 µM).

Turning to `CC(C)=CCc1cc(-c2cc3cc4c(cc3o2)OCO4)c(O)cc1O`, it took 8 µg/mL (≈ 23.6 µM) to reach half-maximal inhibition (IC50).

As for `COc1cc2c(c(O)c1C(=O)/C=C/c1ccc(O)cc1O)CC(CC=C(C)C)C(C)(C)O2` (stereo not given) [CYCLOKURARIDIN], inhibition was half-maximal at 15.1 µg/mL (≈ 34.4 µM) (IC50). Compared with the last compound, the IC50 is about 1.9-fold higher.

Regarding `C=C(C)C(CC=C(C)C)Cc1c(O)cc(O)c2c(=O)c(O)c(-c3ccc(O)cc3)oc12` (stereo not given), it took 24.3 µg/mL (≈ 57.5 µM) to reach half-maximal inhibition (IC50).

With `CC(C)=CCOc1cc(O)c2c(c1CC=C(C)C)OC(c1ccc(O)cc1O)CC2=O` (stereo not given) [SOPHORAFLAVANONE L], the IC50 (as a rule, the point on the concentration scale where inhibition reaches its midpoint) turned out to be 7.1 µg/mL (≈ 16.7 µM).
